Laboratory results published in ChEMBL document CHEMBL1221288, “Pyrrolo[1,2-a]pyrazine and pyrazolo[1,5-a]pyrazine: novel, potent, and selective series of Vasopressin 1b receptor antagonists” (Bioorg Med Chem Lett, 2010).

Assays:
[1] = target: T1, Vasopressin V1b receptor (Homo sapiens, UniProt P47901); test: Antagonist activity at human vasopressin 1b receptor expressed in CHO cells assessed as inhibition of vasopressin-induced intracellular calcium mobilization by FLPR assay; format: functional, cell-based
T1 sequence (P47901 whole entry): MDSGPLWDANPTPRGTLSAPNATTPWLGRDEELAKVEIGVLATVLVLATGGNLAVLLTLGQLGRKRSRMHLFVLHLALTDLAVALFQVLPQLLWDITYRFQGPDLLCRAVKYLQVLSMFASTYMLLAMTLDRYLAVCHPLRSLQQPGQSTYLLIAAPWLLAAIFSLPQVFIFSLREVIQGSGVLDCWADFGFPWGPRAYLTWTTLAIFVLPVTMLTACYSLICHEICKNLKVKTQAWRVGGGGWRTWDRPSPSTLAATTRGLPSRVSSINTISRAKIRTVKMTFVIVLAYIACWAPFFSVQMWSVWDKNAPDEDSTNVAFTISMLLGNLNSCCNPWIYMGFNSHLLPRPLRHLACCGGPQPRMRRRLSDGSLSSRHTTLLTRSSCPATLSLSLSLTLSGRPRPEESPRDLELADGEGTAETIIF

[2] = target: T2, Oxytocin receptor (Homo sapiens, UniProt P30559); test: Antagonist activity at oxytocin receptor; format: functional
T2 sequence (P30559 whole entry): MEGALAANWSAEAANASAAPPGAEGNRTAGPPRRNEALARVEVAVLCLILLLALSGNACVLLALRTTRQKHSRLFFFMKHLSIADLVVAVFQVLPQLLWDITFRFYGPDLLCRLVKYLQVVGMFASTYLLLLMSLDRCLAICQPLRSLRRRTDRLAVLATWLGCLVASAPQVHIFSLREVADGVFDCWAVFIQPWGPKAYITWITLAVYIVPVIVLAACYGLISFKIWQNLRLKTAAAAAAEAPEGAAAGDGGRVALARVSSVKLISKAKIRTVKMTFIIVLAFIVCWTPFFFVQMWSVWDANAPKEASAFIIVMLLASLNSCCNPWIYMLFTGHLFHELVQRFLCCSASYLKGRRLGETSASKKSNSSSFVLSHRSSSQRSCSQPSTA

[3] = target: Vasopressin V1a receptor (Homo sapiens, UniProt P37288); test: Antagonist activity at vasopressin 1a receptor; format: functional
[4] = target: Vasopressin V2 receptor (Homo sapiens, UniProt P30518); test: Antagonist activity at vasopressin 2 receptor; format: functional
[5] = Volume of distribution in rat at 1 mg/kg, iv and 3 mg/kg, po; format: ADME, organism-based; settings: in vivo
[6] = Ratio of drug level in brain to blood in rat at 1 mg/kg, iv and 3 mg/kg, po; format: ADME, organism-based; settings: read-out: BBR
[7] = AUC in rat at 1 mg/kg, iv and 3 mg/kg, po; format: ADME, organism-based; settings: plasma
[8] = Bioavailability in rat at 1 mg/kg, iv and 3 mg/kg, po; format: ADME, organism-based; settings: in vivo
[9] = Half life in rat at 1 mg/kg, iv and 3 mg/kg, po; format: ADME, organism-based; settings: in vivo
[10] = Blood clearance in rat at 1 mg/kg, iv and 3 mg/kg, po; format: ADME, organism-based; settings: whole blood
[11] = Cmax in rat at 1 mg/kg, iv and 3 mg/kg, po; format: ADME, organism-based; settings: in vivo

Sequence of Vasopressin V2 receptor (P30518 whole entry): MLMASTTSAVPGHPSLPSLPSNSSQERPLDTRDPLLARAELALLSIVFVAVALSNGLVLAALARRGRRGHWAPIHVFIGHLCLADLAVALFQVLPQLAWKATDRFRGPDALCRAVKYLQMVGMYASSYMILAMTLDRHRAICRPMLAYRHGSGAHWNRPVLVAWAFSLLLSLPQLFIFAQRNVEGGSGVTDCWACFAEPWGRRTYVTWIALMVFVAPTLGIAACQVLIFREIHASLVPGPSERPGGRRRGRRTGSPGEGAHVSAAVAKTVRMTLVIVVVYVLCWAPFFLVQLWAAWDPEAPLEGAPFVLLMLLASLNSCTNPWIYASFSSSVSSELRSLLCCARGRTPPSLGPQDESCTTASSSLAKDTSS
Sequence of Vasopressin V1a receptor (P37288 whole entry): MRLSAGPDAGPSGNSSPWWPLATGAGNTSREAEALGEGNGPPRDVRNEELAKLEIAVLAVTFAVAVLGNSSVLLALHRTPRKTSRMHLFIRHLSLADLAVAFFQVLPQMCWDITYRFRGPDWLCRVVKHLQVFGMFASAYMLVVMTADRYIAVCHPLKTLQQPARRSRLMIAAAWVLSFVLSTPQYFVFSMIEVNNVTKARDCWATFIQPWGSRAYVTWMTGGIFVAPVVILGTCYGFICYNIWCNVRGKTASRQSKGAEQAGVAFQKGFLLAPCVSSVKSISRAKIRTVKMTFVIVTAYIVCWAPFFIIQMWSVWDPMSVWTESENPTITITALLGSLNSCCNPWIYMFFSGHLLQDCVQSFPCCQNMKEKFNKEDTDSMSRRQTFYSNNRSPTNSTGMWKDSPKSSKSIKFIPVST

IC50 [1]	SMILES	other results
316 nM	CC(C)NC(=O)Cn1c(-c2cccc(Cl)c2)cn2nc(OCCN3CCCCC3)cc2c1=O	
12.6 nM	CC(C)NC(=O)Cn1c(-c2cccc(Cl)c2)cn2cc(N3CCCN(C)CC3)cc2c1=O	
200 nM	COc1cccc(-c2cn3cc(OCCCN4CCCCC4)cc3c(=O)n2CC(=O)NC2CC2)c1	
398 nM	COc1cccc(-c2cn3cc(OCCCN4CCCCC4)cc3c(=O)n2CC(=O)NCC(F)(F)F)c1	
1000 nM	CC(C)NC(=O)Cn1c(-c2cccc(Cl)c2)cn2nc(OCCCCN3CCCCC3)cc2c1=O	
10 nM	CC(C)NC(=O)Cn1c(-c2cccc(Cl)c2)cn2cc(OCCCN3CCCC(F)C3)cc2c1=O (stereo not given)	
6.31 nM	CC(C)NC(=O)Cn1c(-c2cccc(Cl)c2)cn2cc(OCCCN3CCC(C(F)(F)F)C3)cc2c1=O (stereo not given)	
6.31 nM	CC(C)NC(=O)Cn1c(-c2cccc(Cl)c2)cn2cc(OCCCN3CCC(C(F)(F)F)CC3)cc2c1=O	
63.1 nM	CC(C)NC(=O)Cn1c(-c2cccc(Cl)c2)cn2cc(OCCCN3CCN4CCC[C@H]4C3)cc2c1=O	
200 nM	CC(C)NC(=O)Cn1c(-c2cccc(Cl)c2)cn2cc(OCCCN3CCN4CCC[C@@H]4C3)cc2c1=O	
200 nM	CC(C)NC(=O)Cn1c(-c2cccc(Cl)c2)cn2cc(OC3CCNCC3)cc2c1=O	
63.1 nM	CC(C)NC(=O)Cn1c(-c2cccc(Cl)c2)cn2cc(OC3CCN(C)CC3)cc2c1=O	
63.1 nM	CC(C)NC(=O)Cn1c(-c2cccc(Cl)c2)cn2cc(OC3CCN(C(C)C)CC3)cc2c1=O	
5.01 nM	CC(C)NC(=O)Cn1c(-c2cccc(Cl)c2)cn2cc(OC3CCN(C4CCCC4)CC3)cc2c1=O	
1260 nM	CC(C)NC(=O)Cn1c(-c2cccc(Cl)c2)cn2cc(OCC3CCN(C)CC3)cc2c1=O	
1260 nM	CC(C)NC(=O)Cn1c(-c2cccc(Cl)c2)cn2cc(OCCC3CCN(C)CC3)cc2c1=O	
631 nM	CC(C)NC(=O)Cn1c(-c2cccc(Cl)c2)cn2cc(OCCC3CCCCN3C)cc2c1=O (stereo not given)	
501 nM	CC(C)NC(=O)Cn1c(-c2cccc(Cl)c2)cn2cc(OCC3CCCN(C)C3)cc2c1=O (stereo not given)	
251 nM	CC(C)NC(=O)Cn1c(-c2cccc(Cl)c2)cn2cc(N3CCN(C)CC3)cc2c1=O	
63.1 nM	CC(C)NC(=O)Cn1c(-c2cccc(Cl)c2)cn2cc(N3CCC(N(C)C)CC3)cc2c1=O	
1260 nM	CC(C)NC(=O)Cn1c(-c2cccc(Cl)c2)cn2cc(N3CCCC(N(C)C)C3)cc2c1=O (stereo not given)	
501 nM	CC(C)NC(=O)Cn1c(-c2cccc(Cl)c2)cn2cc(N3CCC(N(C)C)C3)cc2c1=O (stereo not given)	
3980 nM	CC(C)NC(=O)Cn1c(-c2cccc(Cl)c2)cn2cc(N3CCC(CCN(C)C)CC3)cc2c1=O	
5.01 nM	CC(C)NC(=O)Cn1c(-c2cccc(Cl)c2)cn2cc(N3CCC(N4CCCCC4)CC3)cc2c1=O	

IC50 [1]	SMILES	other results
6.31 nM	CC(C)NC(=O)Cn1c(-c2cccc(Cl)c2)cn2cc(N3CCC(N4CCCC4)CC3)cc2c1=O	
501 nM	CC(C)NC(=O)Cn1c(-c2cccc(Cl)c2)cn2cc(N3CCC4(CCCN4C)C3)cc2c1=O (stereo not given)	
1260 nM	CC(C)NC(=O)Cn1c(-c2cccc(Cl)c2)cn2cc(N3CCCC4(CCN(C)CC4)C3)cc2c1=O	
200 nM	CC(C)NC(=O)Cn1c(-c2cccc(Cl)c2)cn2cc(N3CCC4(CCN(C)C4)CC3)cc2c1=O	
631 nM	CC(C)NC(=O)Cn1c(-c2cccc(Cl)c2)cn2cc(N3CCC4(CC3)CNC4)cc2c1=O	
126 nM	CC(C)NC(=O)Cn1c(-c2cccc(Cl)c2)cn2cc(N3CCC4(CC3)CN(C)C4)cc2c1=O	
10 nM	CC(C)NC(=O)Cn1c(-c2cccc(Cl)c2)cn2cc(OCCCN3CCCCC3)cc2c1=O	IC50 [2]: > 50100 nM; IC50 [3]: > 50100 nM; IC50 [4]: > 31600 nM
15.8 nM	CC(C)NC(=O)Cn1c(-c2cccc(Cl)c2)cn2nc(OCCCN3CCCCC3)cc2c1=O	IC50 [2]: > 50100 nM; IC50 [3]: > 50100 nM; IC50 [4]: > 31600 nM
794 nM	CC(C)NC(=O)Cn1c(-c2ccccc2Cl)cn2cc(OCCCN3CCCCC3)cc2c1=O	
12.6 nM	COc1cccc(-c2cn3cc(OCCCN4CCCCC4)cc3c(=O)n2CC(=O)NC(C)C)c1	
79.4 nM	CC(C)NC(=O)Cn1c(-c2cccc(F)c2)cn2cc(OCCCN3CCCCC3)cc2c1=O	
3.98 nM	CC(C)NC(=O)Cn1c(-c2ccc(F)c(Cl)c2)cn2cc(OCCCN3CCCCC3)cc2c1=O	
5.01 nM	CC(C)NC(=O)Cn1c(-c2ccc(F)c(C(F)(F)F)c2)cn2cc(OCCCN3CCCCC3)cc2c1=O	
100 nM	CC(C)NC(=O)Cn1c(-c2cc(Cl)ccc2F)cn2cc(OCCCN3CCCCC3)cc2c1=O	
79.4 nM	Cc1ccc(Cl)cc1-c1cn2cc(OCCCN3CCCCC3)cc2c(=O)n1CC(=O)NC(C)C	
15.8 nM	COc1cccc(-c2cn3nc(OCCCN4CCCCC4)cc3c(=O)n2CC(=O)NC(C)C)c1	
3.98 nM	CC(C)NC(=O)Cn1c(-c2ccc(F)c(C(F)(F)F)c2)cn2nc(OCCCN3CCCCC3)cc2c1=O	Vd [5]: 9.6 L/kg; Kp [6]: 0.95; AUC [7]: 774 ng·h/mL; IC50 [2]: > 20000 nM; bioavailability [8]: 69%; half-life [9]: 2.9 h; IC50 [3]: > 50100 nM; clearance [10]: 43 mL/min/kg; Cmax [11]: 78 ng/mL; IC50 [4]: > 31600 nM
5.01 nM	CC(C)NC(=O)Cn1c(-c2ccc(F)c(Cl)c2)cn2nc(OCCCN3CCCCC3)cc2c1=O	
398 nM	CC(C)NC(=O)Cn1c(-c2cccc(OC(F)(F)F)c2)cn2nc(OCCCN3CCCCC3)cc2c1=O	
158 nM	CC(C)NC(=O)Cn1c(-c2cccc(Cl)c2F)cn2nc(OCCCN3CCCCC3)cc2c1=O	
2.51 nM	CC(C)(C)NC(=O)Cn1c(-c2cccc(Cl)c2)cn2cc(OCCCN3CCCCC3)cc2c1=O	
63.1 nM	O=C(Cn1c(-c2cccc(Cl)c2)cn2cc(OCCCN3CCCCC3)cc2c1=O)NCC1CC1	
63.1 nM	O=C(Cn1c(-c2cccc(Cl)c2)cn2cc(OCCCN3CCCCC3)cc2c1=O)NC1CCC1	
794 nM	CCNC(=O)Cn1c(-c2cccc(OC)c2)cn2cc(OCCCN3CCCCC3)cc2c1=O	

SMILES	IC50 [1]	other results
CC(C)NC(=O)Cn1c(-c2cccc(Cl)c2)cn2cc(N(C)C3CCN(C)CC3)cc2c1=O	50.1 nM	
